How the values were obtained:
OVCAR-8 = test: NCI 60 cell panel SRB screen; assay type: cell-based; conditions: Homo sapiens
SW-620 = test: NCI 60 cell panel SRB screen; assay type: cell-based; conditions: Homo sapiens
K-562 = test: NCI 60 cell panel SRB screen; assay type: cell-based; conditions: Homo sapiens, K562
OVCAR-3 = test: NCI 60 cell panel SRB screen; assay type: cell-based; conditions: Homo sapiens
SR = test: NCI 60 cell panel SRB screen; assay type: cell-based; conditions: Homo sapiens
SK-MEL-5 = test: NCI 60 cell panel SRB screen; assay type: cell-based; conditions: Homo sapiens
RPMI-8226 = test: NCI 60 cell panel SRB screen; assay type: cell-based; conditions: Homo sapiens
SF-295 = test: NCI 60 cell panel SRB screen; assay type: cell-based; conditions: Homo sapiens
HCT-116 = test: NCI 60 cell panel SRB screen; assay type: cell-based; conditions: Homo sapiens
VEGFR-2 tyrosine kinase = molecular target: T1, VEGFR-2 tyrosine kinase (Homo sapiens, UniProt P35968); test: In vitro VEGFR-2 tyrosine kinase assay (BPS Bioscience); assay type: biochemical; conditions: read-out: VEGFR-2 % inhibition; 10 μM concentration
T1 construct: purchased BPS Bioscience 40301
Method in brief: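 For IC50, ADP formation after a 30-min 30 °C reaction was detected by ADP-Glo luminescence in duplicate, blank-subtracted and fitted as log inhibitor versus normalised response. The 10 µM single-dose test instead measured remaining ATP (Kinase-Glo Plus) after 40 min at 30 °C with poly(Glu,Tyr) substrate, 10 μM ATP, pH 7.4, 1% DMSO.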

DU-145 = test: NCI 60 cell panel SRB screen; assay type: cell-based; conditions: Homo sapiens
786-0 = test: NCI 60 cell panel SRB screen; assay type: cell-based; conditions: Homo sapiens
UACC-257 = test: NCI 60 cell panel SRB screen; assay type: cell-based; conditions: Homo sapiens
CCRF-CEM = test: NCI 60 cell panel SRB screen; assay type: cell-based, human
SF-268 = test: NCI 60 cell panel SRB screen; assay type: cell-based; conditions: Homo sapiens
UACC-62 = test: NCI 60 cell panel SRB screen; assay type: cell-based
A549/ATCC = test: NCI 60 cell panel SRB screen; assay type: cell-based; conditions: Homo sapiens
HOP-62 = test: NCI 60 cell panel SRB screen; assay type: cell-based; conditions: Homo sapiens
M14 = test: NCI 60 cell panel SRB screen; assay type: cell-based; conditions: Homo sapiens
MALME-3M = test: NCI 60 cell panel SRB screen; assay type: cell-based; conditions: Homo sapiens
[1] = single dose 10 μM, read-out: percent cell growth promotion

T1 sequence (P35968 20-1356): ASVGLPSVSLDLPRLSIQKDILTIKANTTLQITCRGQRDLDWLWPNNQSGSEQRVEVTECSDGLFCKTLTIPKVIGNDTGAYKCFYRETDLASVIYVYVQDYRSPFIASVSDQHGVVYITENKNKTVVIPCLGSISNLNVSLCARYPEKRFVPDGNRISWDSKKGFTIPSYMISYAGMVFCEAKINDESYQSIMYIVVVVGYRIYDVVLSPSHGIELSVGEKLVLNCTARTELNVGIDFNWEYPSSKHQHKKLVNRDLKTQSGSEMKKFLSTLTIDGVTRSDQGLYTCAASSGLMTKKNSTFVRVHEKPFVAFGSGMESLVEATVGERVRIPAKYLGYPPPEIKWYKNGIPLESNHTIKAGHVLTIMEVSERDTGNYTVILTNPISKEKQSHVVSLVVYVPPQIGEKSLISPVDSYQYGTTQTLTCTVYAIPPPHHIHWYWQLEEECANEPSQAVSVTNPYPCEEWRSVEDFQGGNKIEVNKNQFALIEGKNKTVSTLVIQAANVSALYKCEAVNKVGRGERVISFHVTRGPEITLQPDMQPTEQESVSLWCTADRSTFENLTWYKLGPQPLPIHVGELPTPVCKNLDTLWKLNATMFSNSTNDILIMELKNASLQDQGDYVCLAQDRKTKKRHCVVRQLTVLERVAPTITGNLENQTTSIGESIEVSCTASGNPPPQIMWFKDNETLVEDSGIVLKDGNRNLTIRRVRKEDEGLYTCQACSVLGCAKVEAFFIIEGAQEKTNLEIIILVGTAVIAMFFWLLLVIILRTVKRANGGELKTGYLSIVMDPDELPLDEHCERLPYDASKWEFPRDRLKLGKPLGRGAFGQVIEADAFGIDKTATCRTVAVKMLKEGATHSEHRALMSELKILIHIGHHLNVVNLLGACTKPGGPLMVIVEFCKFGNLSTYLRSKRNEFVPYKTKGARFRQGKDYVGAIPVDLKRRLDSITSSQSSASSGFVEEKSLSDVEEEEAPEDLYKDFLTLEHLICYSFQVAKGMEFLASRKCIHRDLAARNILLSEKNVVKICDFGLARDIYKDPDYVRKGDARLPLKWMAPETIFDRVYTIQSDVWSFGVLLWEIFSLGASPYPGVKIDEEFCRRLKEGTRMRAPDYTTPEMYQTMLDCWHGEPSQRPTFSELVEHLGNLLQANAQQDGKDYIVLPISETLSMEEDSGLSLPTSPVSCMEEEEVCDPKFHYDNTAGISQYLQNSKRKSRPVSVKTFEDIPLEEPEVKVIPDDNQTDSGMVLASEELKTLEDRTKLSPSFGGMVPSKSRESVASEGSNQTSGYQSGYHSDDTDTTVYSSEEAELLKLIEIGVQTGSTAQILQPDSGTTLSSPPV

Compound: Clc1ccc(Nc2nnc(COc3ccccc3)c3ccccc23)cc1 [Compound 17a, N-(4-Chlorophenyl)-4-(phenoxymethyl)phthalazin-1-amine]
- GI50 (OVCAR-8; OVCAR-8, 5 log dose): 3.49 µM
- IC (TGI) (OVCAR-8; OVCAR-8, 5 log dose): 15 µM
- CC50 (OVCAR-8; OVCAR-8, 5 log dose, 48 h, read-out: LC50 (the source's name)): > 25 µM
- activity at 10 µM (OVCAR-8; OVCAR-8, single dose 10 μM, read-out: percent cell growth promotion): 5.02%
- GI50 (SW-620; SW-620, 5 log dose): 2.86 µM
- IC (TGI) (SW-620; SW-620, 5 log dose): 7.79 µM
- CC50 (SW-620; SW-620, 5 log dose, 48 h, read-out: LC50 (the source's name)): 21.2 µM
- activity at 10 µM (SW-620; SW-620, single dose 10 μM, read-out: percent cell growth promotion): 15.4%
- GI50 (K-562; K-562, 5 log dose): 1.85 µM
- IC (TGI) (K-562; K-562, 5 log dose): 11.9 µM
- CC50 (K-562; K-562, 5 log dose, 48 h, read-out: LC50 (the source's name)): > 25 µM
- activity at 10 µM (K-562; K-562, single dose 10 μM, read-out: percent cell growth promotion): 2.77%
- GI50 (OVCAR-3; OVCAR-3, 5 log dose): 2.87 µM
- IC (TGI) (OVCAR-3; OVCAR-3, 5 log dose): 9.8 µM
- CC50 (OVCAR-3; OVCAR-3, 5 log dose, 48 h, read-out: LC50 (the source's name)): > 25 µM
- activity at 10 µM (OVCAR-3; OVCAR-3, single dose 10 μM, read-out: percent cell growth promotion): -35.1%
- GI50 (SR; 5 log dose): 1.23 µM
- IC (TGI) (SR; 5 log dose): 11.2 µM
- CC50 (SR; 5 log dose, 48 h, read-out: LC50 (the source's name)): > 25 µM
- activity at 10 µM (SR; [1]): -20.6%
- GI50 (SK-MEL-5; SK-MEL-5): 1.08 µM
- IC (TGI) (SK-MEL-5; SK-MEL-5, read-out: TGI): 4.56 µM
- activity at 10 µM (SK-MEL-5; SK-MEL-5, read-out: percent cell growth promotion): -96.1%
- CC50 (SK-MEL-5; SK-MEL-5, 5 log dose, 48 h, read-out: LC50 (the source's name)): 10.8 µM
- GI50 (RPMI-8226; RPMI-8226, 5 log dose): 1.37 µM
- IC (TGI) (RPMI-8226; RPMI-8226, 5 log dose): 6.96 µM
- CC50 (RPMI-8226; RPMI-8226, 5 log dose, 48 h, read-out: LC50 (the source's name)): > 25 µM
- activity at 10 µM (RPMI-8226; RPMI-8226, single dose 10 μM, read-out: percent cell growth promotion): -25.3%
- GI50 (SF-295; SF-295, 5 log dose): 1.65 µM
- IC (TGI) (SF-295; SF-295, 5 log dose): 6.7 µM
- CC50 (SF-295; SF-295, 5 log dose, 48 h, read-out: LC50 (the source's name)): 20.5 µM
- activity at 10 µM (SF-295; SF-295, single dose 10 μM, read-out: percent cell growth promotion): -1.11%
- GI50 (HCT-116; HCT-116, 5 log dose): 1.07 µM
- IC (TGI) (HCT-116; HCT-116, 5 log dose): 4.83 µM
- LC50 (lethal concentration 50%) (HCT-116; HCT-116, 5 log dose, 48 h): 13.1 µM
- activity at 10 µM (HCT-116; HCT-116, single dose 10 μM, read-out: percent cell growth promotion): 1.21%
- inhibition at 10 µM (VEGFR-2 tyrosine kinase): 31%
- GI50 (DU-145; DU-145, 5 log dose): 2.65 µM
- IC (TGI) (DU-145; DU-145, 5 log dose): 10.5 µM
- CC50 (DU-145; DU-145, 5 log dose, 48 h, read-out: LC50 (the source's name)): > 25 µM
- activity at 10 µM (DU-145; DU-145, single dose 10 μM, read-out: percent cell growth promotion): 10.4%
- GI50 (786-0; 786-0, 5 log dose): 2.6 µM
- IC (TGI) (786-0; 786-0, 5 log dose): 8.11 µM
- CC50 (786-0; 786-0, 5 log dose, 48 h, read-out: LC50 (the source's name)): > 25 µM
- activity at 10 µM (786-0; 786-0, single dose 10 μM, read-out: percent cell growth promotion): 5.25%
- GI50 (UACC-257; UACC-257): 2.54 µM
- IC (TGI) (UACC-257; UACC-257, read-out: TGI): 5.82 µM
- activity at 10 µM (UACC-257; UACC-257, read-out: percent cell growth promotion): -24.9%
- CC50 (UACC-257; UACC-257, 5 log dose, 48 h, read-out: LC50 (the source's name)): 13.4 µM
- TGI (CCRF-CEM; 5 log dose): 14.2 µM
- GI50 (CCRF-CEM; Homo sapiens, 5 log dose): 2.8 µM
- CC50 (CCRF-CEM; Homo sapiens, 5 log dose, 48 h, read-out: LC50 (the source's name)): > 25 µM
- activity at 10 µM (CCRF-CEM; Homo sapiens, single dose 10 μM, read-out: percent cell growth promotion): 1.06%
- GI50 (SF-268; SF-268, 5 log dose): 2.23 µM
- IC (TGI) (SF-268; SF-268, 5 log dose): 12.9 µM
- CC50 (SF-268; SF-268, 5 log dose, 48 h, read-out: LC50 (the source's name)): > 25 µM
- activity at 10 µM (SF-268; SF-268, single dose 10 μM, read-out: percent cell growth promotion): 13.2%
- GI50 (UACC-62; Homo sapiens, UACC-62): 1.24 µM
- activity at 10 µM (UACC-62; Homo sapiens, UACC-62, read-out: percent cell growth promotion): -27.7%
- CC50 (UACC-62; Homo sapiens, UACC-62, 5 log dose, 48 h, read-out: LC50 (the source's name)): 17.5 µM
- TGI (UACC-62; UACC-62, 5 log dose): 5.69 µM
- GI50 (A549/ATCC; 5 log dose): 2.87 µM
- IC (TGI) (A549/ATCC; 5 log dose): 12.3 µM
- LC50 (concentration killing 50% of cells) (A549/ATCC; 5 log dose, 48 h): > 25 µM
- activity at 10 µM (A549/ATCC; [1]): 4.64%
- GI50 (HOP-62; HOP-62, 5 log dose): 2.51 µM
- IC (TGI) (HOP-62; HOP-62, 5 log dose): 7.74 µM
- CC50 (HOP-62; HOP-62, 5 log dose, 48 h, read-out: LC50 (the source's name)): 23.9 µM
- activity at 10 µM (HOP-62; HOP-62, single dose 10 μM, read-out: percent cell growth promotion): 13.1%
- GI50 (M14; M14): 0.91 µM
- IC (TGI) (M14; M14, read-out: TGI): 5.03 µM
- activity at 10 µM (M14; M14, read-out: percent cell growth promotion): -9.99%
- CC50 (M14; M14, 5 log dose, 48 h, read-out: LC50 (the source's name)): 15.2 µM
- GI50 (MALME-3M; Malme-3M): 1.38 µM
- IC (TGI) (MALME-3M; Malme-3M, read-out: TGI): 7.3 µM
- activity at 10 µM (MALME-3M; Malme-3M, read-out: percent cell growth promotion): -13.5%
- CC50 (MALME-3M; MALME-3M, 5 log dose, 48 h, read-out: LC50 (the source's name)): 25 µM

From paper PMC6691788, “Design and synthesis of phthalazine-based compounds as potent anticancer agents with potential antiangiogenic activity via VEGFR-2 inhibition” (Journal of Enzyme Inhibition and Medicinal Chemistry, 2019)
